Consider 1 molecule from BindingDB's records for doi:10.1016/j.bmcl.2004.11.051 (Merck Frosst Centre For Therapeutic Research, 2005).

One may read the pKi as the negative decadic logarithm of the Ki, by convention in mol/L.

Assay [1] addresses Prostaglandin E2 receptor EP2 subtype (Homo sapiens, UniProt P43116). Nature of the assay: Binding affinity for human prostanoid EP2 receptor.
Assay [2] has as its target T1, Prostaglandin E2 receptor EP3 subtype (Homo sapiens, UniProt P43115).
T1 sequence (P43115 whole entry): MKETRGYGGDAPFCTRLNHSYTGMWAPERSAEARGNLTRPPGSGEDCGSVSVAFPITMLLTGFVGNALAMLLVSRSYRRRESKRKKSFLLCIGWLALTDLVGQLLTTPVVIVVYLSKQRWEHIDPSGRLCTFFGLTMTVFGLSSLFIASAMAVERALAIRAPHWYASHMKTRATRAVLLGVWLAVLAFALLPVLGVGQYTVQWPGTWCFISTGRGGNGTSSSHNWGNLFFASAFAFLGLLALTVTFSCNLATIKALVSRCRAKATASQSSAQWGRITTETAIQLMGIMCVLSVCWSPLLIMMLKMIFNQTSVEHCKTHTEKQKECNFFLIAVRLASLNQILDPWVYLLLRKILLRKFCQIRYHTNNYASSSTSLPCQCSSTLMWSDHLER
Nature of the assay: Binding affinity for human prostanoid EP3 receptor.

Assay [3] addresses Prostaglandin E2 receptor EP4 subtype (Homo sapiens, UniProt P35408). Description: Binding affinity for human prostanoid EP4 receptor.

pKi: −log10 of the molar value.

Chain of Prostaglandin E2 receptor EP2 subtype (P43116 whole entry): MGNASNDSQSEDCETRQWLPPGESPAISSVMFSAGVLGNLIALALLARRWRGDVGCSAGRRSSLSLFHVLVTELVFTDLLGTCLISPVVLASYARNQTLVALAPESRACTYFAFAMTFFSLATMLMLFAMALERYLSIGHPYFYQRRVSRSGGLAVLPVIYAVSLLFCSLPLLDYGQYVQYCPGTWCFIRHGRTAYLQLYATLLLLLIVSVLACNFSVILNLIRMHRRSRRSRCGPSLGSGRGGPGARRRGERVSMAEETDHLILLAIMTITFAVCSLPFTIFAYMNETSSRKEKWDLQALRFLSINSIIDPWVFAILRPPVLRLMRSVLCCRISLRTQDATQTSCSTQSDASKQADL
Chain of Prostaglandin E2 receptor EP4 subtype (P35408 whole entry): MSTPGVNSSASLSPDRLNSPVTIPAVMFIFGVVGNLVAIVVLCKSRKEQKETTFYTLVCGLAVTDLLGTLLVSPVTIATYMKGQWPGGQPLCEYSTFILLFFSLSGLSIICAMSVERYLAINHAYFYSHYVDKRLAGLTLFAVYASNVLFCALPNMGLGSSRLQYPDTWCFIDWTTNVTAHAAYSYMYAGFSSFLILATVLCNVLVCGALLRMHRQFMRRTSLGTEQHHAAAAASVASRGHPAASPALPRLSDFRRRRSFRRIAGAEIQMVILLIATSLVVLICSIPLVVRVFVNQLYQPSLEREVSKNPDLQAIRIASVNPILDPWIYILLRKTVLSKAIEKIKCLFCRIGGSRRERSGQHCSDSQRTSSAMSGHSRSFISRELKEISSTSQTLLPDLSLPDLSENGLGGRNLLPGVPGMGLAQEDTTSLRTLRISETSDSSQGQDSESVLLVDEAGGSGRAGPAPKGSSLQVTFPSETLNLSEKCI

On to `Cc1cccc(C/C=C/c2ccccc2/C=C/C(=O)O)c1OCc1ccccc1`, for which the pKi in assay [1] is 6.07; in assay [2], 8.05; in assay [3], 5.70.
